Measured values taken from US20230183239A1, “ECTONUCLEOTIDE PYROPHOSPHATASE-PHOSPHODIESTERASE 1 (ENPP-1) INHIBITORS AND USES THEREOF” (AbbVie Inc., priority 2017, published 2023).

Experiments:
Format in all cases: biochemical
ENPP1 [1] = biological target: T1, ENPP1 (Homo sapiens, UniProt P22413); assay: Indirect quantitation of 2',3'-cGAMP hydrolysis (AMP-Glo Assay kit); settings: cGAMP substrate; Ki from IC50 by Cheng-Prusoff; read-out: ENPP1 Inhibition -cGAMP: Ki
T1 sequence (P22413 1-925): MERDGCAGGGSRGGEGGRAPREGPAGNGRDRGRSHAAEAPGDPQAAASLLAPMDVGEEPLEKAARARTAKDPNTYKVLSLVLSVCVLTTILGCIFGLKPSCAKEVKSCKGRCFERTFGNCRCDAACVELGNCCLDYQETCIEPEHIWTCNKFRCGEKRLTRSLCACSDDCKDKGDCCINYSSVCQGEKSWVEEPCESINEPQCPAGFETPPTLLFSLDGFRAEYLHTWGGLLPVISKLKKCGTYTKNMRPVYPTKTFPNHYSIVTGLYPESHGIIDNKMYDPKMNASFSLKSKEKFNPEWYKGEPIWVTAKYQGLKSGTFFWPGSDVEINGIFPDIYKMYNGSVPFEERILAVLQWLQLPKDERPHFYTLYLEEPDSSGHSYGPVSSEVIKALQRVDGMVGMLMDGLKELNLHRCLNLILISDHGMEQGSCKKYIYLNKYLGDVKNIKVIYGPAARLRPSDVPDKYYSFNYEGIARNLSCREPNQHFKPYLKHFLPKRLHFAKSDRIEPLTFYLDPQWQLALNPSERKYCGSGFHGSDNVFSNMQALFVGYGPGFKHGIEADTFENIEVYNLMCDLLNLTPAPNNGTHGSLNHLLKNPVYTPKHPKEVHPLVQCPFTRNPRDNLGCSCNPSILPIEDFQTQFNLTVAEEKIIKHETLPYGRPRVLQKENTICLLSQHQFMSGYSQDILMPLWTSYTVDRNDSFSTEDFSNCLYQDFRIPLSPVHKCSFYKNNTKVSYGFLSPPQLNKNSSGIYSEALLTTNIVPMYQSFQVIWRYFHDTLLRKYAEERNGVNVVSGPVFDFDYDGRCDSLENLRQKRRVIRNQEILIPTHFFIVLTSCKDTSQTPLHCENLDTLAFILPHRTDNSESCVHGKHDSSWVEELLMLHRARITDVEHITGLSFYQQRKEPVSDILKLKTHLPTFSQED

ENPP1 [2] = biological target: T1, ENPP1; assay: Substrate selectivity ratio, inhibition of cGAMP hydrolysis versus ATP hydrolysis; settings: ratio Ki AMP-pNP / Ki cGAMP
Description: The selectivity ratios for inhibition of cGAMP hydrolysis versus ATP hydrolysis were then calculated as follows: […]

ENPP1 [3] = biological target: T1, ENPP1; assay: ENPP1 enzyme assay with AMP-pNP substrate (hydrolysis of ATP analog); settings: AMP-pNP substrate (ATP analog); Ki from IC50 by Cheng-Prusoff; read-out: ENPP1 Inhibition _AMP-pNP: Ki
Description: The ENPP1 assay with AMP-pNP substrate is conducted in a buffer containing 50 mM Tris-HCl (pH 8.5)/ 250 mM NaCl/0.5 mM CaCl2/1 µM ZnCl2/0.1% DMSO. Inhibitors are added at final concentrations ranging between 10 µM and 30 pM depending on the compound. Duplicate wells are run at each inhibitor concentration. The final assay volume is 40 µL and human recombinant ENPP1 is present at 60 ng/well. The assay is initiated by the addition of substrate (300 µM AMP-pNP final concentration), and incubated for 20 minutes at 37° C. […] Each assay plate also includes wells with no enzyme added (MIN OD) and wells with no inhibitor added (MAX OD). The percent inhibition of ENPP1 for each sample is then calculated as: […]
IC50 values of compounds were calculated by entering the percent inhibition values into a sigmoidal variable slope nonlinear regression model in GraphPad Prism® software.

Ki (ENPP1 [1]) [µM]	Substrate Selectivity: Ki_AMP-pNP/Ki_cGAMP (ENPP1 [2])	Ki (ENPP1 [3]) [µM]	Compound
< 0.1	43	0.1 to 1	COc1ccc2nccc(N3CCC4(CC3)CCN(S(N)(=O)=O)C4)c2c1 [Example 364, 8-(6-methoxyquinolin-4-yl)-2,8-diazaspiro[4.5]decane-2-sulfonamide]
< 0.1	>13.0	0.1 to 1	COc1ccc2c(Sc3ccc(NS(N)(=O)=O)cc3)ccnc2c1 [Example 302, N-(4-((7-methoxyquinolin-4-yl)thio)phenyl)sulfamide]
< 0.1	28.2	0.1 to 1	COc1ccc2c(Oc3ccc(CS(N)(=O)=O)cc3)ccnc2c1 [Example 312, (4-((7-methoxyquinolin-4-yl)oxy)phenyl)methanesulfonamide]
< 0.1	26.4	0.1 to 1	COc1cc2ncnc(N3CCC(CCN(O)C=O)CC3)c2cc1OC [Example 219, N-(2-(1-(6,7-dimethoxyquinazolin-4-yl)piperidin-4-yl)ethyl)-N-hydroxyformamide]
0.1 to 1	>50.7	> 1	COc1cc2ncnc(N3CCC(CCC(=O)O)CC3)c2cc1OC [Example 171, 3-(1-(6,7-dimethoxyquinazolin-4-yl)piperidin-4-yl)propanoic acid]
< 0.1	62	0.1 to 1	COc1cc2nccc(-c3ccc(CNS(N)(=O)=O)cc3)c2cc1F [Example 239, N-(4-(6-fluoro-7-methoxyquinolin-4-yl)benzyl)sulfamide]
0.1 to 1	> 14.6	> 1	COc1cc2ncnc(N3CCC(CCC(N)=O)CC3)c2cc1OC [Example 222, 3-(1-(6,7-dimethoxyquinazolin-4-yl)piperidin-4-yl)propanamide]
< 0.1	30.7	0.1 to 1	COc1cc2nccc(N3CCc4cc(NS(N)(=O)=O)ccc43)c2cc1OC [Example 281, N-(1-(6,7-dimethoxyquinolin-4-yl)indolin-5-yl)sulfamide]
< 0.1	109	0.1 to 1	COc1cc2ncnc(NC(C)c3ccc(NS(N)(=O)=O)cc3)c2cc1F (centres unmarked) [Example 236, N-(4-(1-((6-fluoro-7-methoxyquinazolin-4-yl)amino)ethyl)phenyl)sulfamide]
< 0.1	32	< 0.1	COc1ccc2c(Oc3ccc(S(N)(=O)=O)cc3)ccnc2n1 [Example 361, 4-(7-Methoxy-[1,8]naphthyridin-4-yl-oxy)-benzene sulfonamide]
< 0.1	50	0.1 to 1	COc1ccc2c(-c3ccc(C(C)NS(N)(=O)=O)cc3)ccnc2c1 (centres unmarked) [Example 416, N-(1-(4-(7-methoxyquinolin-4-yl)phenyl)ethyl)sulfamide]
< 0.1	17.1	0.1 to 1	COc1cc2ncc(C#N)c(-c3ccc(CN(C4CC4)S(N)(=O)=O)cc3)c2cc1OC [Example 290, N-(4-(3-cyano-6,7-dimethoxyquinolin-4-yl)benzyl)-N-cyclopropylsulfamide]
< 0.1	>32	> 1	COc1ccc2c(-c3ccc4c(c3)CN(S(N)(=O)=O)CC4)c(C)cnc2c1 [Example 371, 7-(7-methoxy-3-methylquinolin-4-yl)-3,4-dihydroisoquinoline-2(1H)-sulfonamide]
0.1 to 1		> 1	COc1ccc2c(-c3ccc4c(c3)CN(S(N)(=O)=O)CC4)c(C#N)cnc2c1 [Example 249, 7-(3-cyano-7-methoxyquinolin-4-yl)-3,4-dihydroisoquinoline-2(1H)-sulfonamide]
	39.4	> 1	COc1cc2ncnc(N3CCC4(CC3)CN(S(N)(=O)=O)C4)c2cc1OC [Example 30, 7-(6,7-dimethoxyquinazolin-4-yl)-2,7-diazaspiro[3.5]nonane-2-sulfonamide]
> 1		> 1	NS(=O)(=O)NCCC1CCN(c2cc(-c3ccc4c(c3)OCO4)ncn2)CC1 [Example 10, N-(2-(1-(6-(benzo[d][1,3]dioxol-5-yl)pyrimidin-4-yl)piperidin-4-yl)ethyl)sulfamide]
< 0.1		< 0.1	COc1cc2nccc(Oc3ccc(NS(N)(=O)=O)cc3)c2cc1F [Example 282, N-(4-((6-fluoro-7-methoxyquinolin-4-yl)oxy)phenyl)sulfamide]
0.1 to 1		> 1	COc1cc2nccc(Nc3ccc(NS(=O)(=O)C(F)(F)F)cc3)c2cc1OC [Example 174, N-(4-((6,7-dimethoxyquinolin-4-yl)amino)phenyl)-1,1,1-trifluoromethanesulfonamide]
> 1		> 1	COc1cc2ncnc(N(C)c3ccc(NS(N)(=O)=O)cc3)c2cc1OC [Example 190, N-(4-((6,7-dimethoxyquinazolin-4-yl)(methyl)amino)phenyl)sulfamide]
0.1 to 1			COc1cc2ncnc(N3CCC(CCNS(=O)(=O)N4CCOCC4)CC3)c2cc1OC [Example 132, N-(2-(1-(6,7-dimethoxyquinazolin-4-yl)piperidin-4-yl)ethyl)morpholine-4-sulfonamide]
> 1			COc1cc2cnn(-c3ccc(CCNS(N)(=O)=O)cc3)c2cc1OC [Example 210, N-(4-(5,6-dimethoxy-1H-indazol-1-yl)phenethyl)sulfamide]
> 1			COc1cc2nccc(Oc3ccc(NS(N)(=O)=O)nc3)c2cc1OC [Example 176, N-(5-((6,7-dimethoxyquinolin-4-yl)oxy)pyridin-2-yl)sulfamide]
> 1			COc1cc2nccc(Oc3ccc(N)cc3)c2cc1OC [Example 341, 4-((6,7-dimethoxyquinolin-4-yl)oxy)aniline]
> 1			Cc1ncnc(N2CCC(CCNS(N)(=O)=O)CC2)c1C [Example 15, N-(2-(1-(5,6-dimethylpyrimidin-4-yl)piperidin-4-yl)ethyl)sulfamide]
> 1			COc1ccc(-c2cc(N3CCC(NS(N)(=O)=O)CC3)ncn2)cc1OC [Example 36, N-(1-(6-(3,4-dimethoxyphenyl)pyrimidin-4-yl)piperidin-4-yl)sulfamide]
> 1			COc1cc2c(Oc3ccc(NS(N)(=O)=O)cc3)ccnc2cn1 [Example 411, N-(4-((6-methoxy-1,7-naphthyridin-4-yl)oxy)phenyl)sulfamide]
> 1			COc1cc2ncnc(N3CCC(CCNS(=O)(=O)NC(C)C)CC3)c2cc1OC [Example 142, 2-(1-(6,7-dimethoxyquinazolin-4-yl)piperidin-4-yl)ethan-1-amino(N-prop-2-yl)sulfonamide]
> 1			COc1cc2ncnc(-c3ccc4c(c3)CCC(NS(N)(=O)=O)C4)c2cc1OC (centres unmarked) [Example 131, N-(6-(6,7-dimethoxyquinazolin-4-yl)-1,2,3,4-tetrahydronaphthalen-2-yl)sulfamide]
> 1			Cc1cc(N2CCC(CCNS(N)(=O)=O)CC2)ncn1 [Example 16, N-(2-(1-(6-methylpyrimidin-4-yl)piperidin-4-yl)ethyl)sulfamide]
0.1 to 1			COc1cc2ncnc(N3CCC(CCNS(C)(=O)=O)CC3)c2cc1OC [Example 338, N-(2-(1-(6,7-dimethoxyquinazolin-4-yl)piperidin-4-yl)ethyl)methanesulfonamide]
